Test results: patent publication US10590153B2, “Process for producing crystalline DTPMP” (Zschimmer & Schwarz Mohsdorf GmbH & Co. KG, priority 2014, dated 2020)

Experiment: Drying behaviour of crystallisates in dependence on residual moisture and product purity (tempering in sealed vials, visual points classification)
Format: physicochemical
Parameters: key: 5 points=sample unchanged; 4 points=sample compacted/started to dissolve; 3 points=sample visibly started to dissolve; 2 points=sample cloudy highly viscous solution; 1 point=sample dissolved to clear solution
Details: sealed vial, shaken
Method: This dependency is shown by the following example for determining the drying behaviour of crystallisates in dependence on residual moisture and product purity.
A DTPMP solid isolated by recrystallisation is characterised by residues of adhering mother liquor via the quality parameters listed in the following table. Determination of the residual moisture content by means of a halogen dryer HB 43 S/Mettler Toledo is carried out isothermally at the indicated temperature using the shutoff criterion 4 (AK4=mean weight loss is <1 mg per 90 seconds):
After a purification step, which consists in suspending the solid in water and then separating it off by means of a filtering centrifuge, the following quality criteria are obtained:
The adhering residual moisture is removed stepwise from these solid samples in a rotary evaporator at 40° C. and 5 mbar vacuum, so that a series of samples with decreasing residual moisture content is prepared from each of the two purity grades (unwashed and washed).
4 ml borosilicate vials are filled with this sample material and the filling level is adjusted to ⅔ of the height of the glass by gentle tapping. In order to minimise evaporative losses, the screw cap of each vial is additionally sealed with a polyethylene film. All the samples are shaken in parallel in a tempering block on a heating and cooling shaker ThermoTwister comfort/Quantifoil Instruments GmbH for a defined period at a defined temperature and then assessed visually. Classification is made according to the following points system: […]

[1] = Temperature 35 °C, test duration 24 h
[2] = Temperature 40 °C, test duration 24 h
[3] = Temperature 45 °C, test duration 24 h
[4] = Temperature 50 °C, test duration 24 h
[5] = Temperature 55 °C, test duration 24 h
[6] = Temperature 60 °C, test duration 24 h
[7] = Temperature 65 °C, test duration 5 h
[8] = Temperature 70 °C, test duration 5 h
[9] = Temperature 75 °C, test duration 5 h
[10] = Temperature 80 °C, test duration 5 h
[11] = Temperature 85 °C, test duration 5 h
[12] = Temperature 90 °C, test duration 5 h

SMILES	Visual classification at the end of the tempering step (points system) [1]	Visual classification at the end of the tempering step (points system) [2]	Visual classification at the end of the tempering step (points system) [3]	Visual classification at the end of the tempering step (points system) [4]	Visual classification at the end of the tempering step (points system) [5]	Visual classification at the end of the tempering step (points system) [6]	Visual classification at the end of the tempering step (points system) [7]	Visual classification at the end of the tempering step (points system) [8]	Visual classification at the end of the tempering step (points system) [9]	Visual classification at the end of the tempering step (points system) [10]	Visual classification at the end of the tempering step (points system) [11]	Visual classification at the end of the tempering step (points system) [12]
O=P(O)(O)CN(CCN(CP(=O)(O)O)CP(=O)(O)O)CCN(CP(=O)(O)O)CP(=O)(O)O [unwashed quality 19 [% by mass] residual moisture]	5	5	5	5	5	4	2	2	2	2	2	2
O=P(O)(O)CN(CCN(CP(=O)(O)O)CP(=O)(O)O)CCN(CP(=O)(O)O)CP(=O)(O)O [unwashed quality 24 [% by mass] residual moisture]	5	5	5	4	4	3	2	1	1	1	1	1
O=P(O)(O)CN(CCN(CP(=O)(O)O)CP(=O)(O)O)CCN(CP(=O)(O)O)CP(=O)(O)O [unwashed quality 31 [% by mass] residual moisture]	5	5	5	5	4	3	1	1	1	1	1	1
O=P(O)(O)CN(CCN(CP(=O)(O)O)CP(=O)(O)O)CCN(CP(=O)(O)O)CP(=O)(O)O [unwashed quality 36 [% by mass] residual moisture]	5	5	5	5	5	3	1	1	1	1	1	1
O=P(O)(O)CN(CCN(CP(=O)(O)O)CP(=O)(O)O)CCN(CP(=O)(O)O)CP(=O)(O)O [unwashed quality 40 [% by mass] residual moisture]	5	5	5	5	5	3	1	1	1	1	1	1
O=P(O)(O)CN(CCN(CP(=O)(O)O)CP(=O)(O)O)CCN(CP(=O)(O)O)CP(=O)(O)O [unwashed quality 47 [% by mass] residual moisture]	5	5	5	5	5	3	1	1	1	1	1	1
O=P(O)(O)CN(CCN(CP(=O)(O)O)CP(=O)(O)O)CCN(CP(=O)(O)O)CP(=O)(O)O [unwashed quality 51 [% by mass] residual moisture]	5	5	5	5	5	2	1	1	1	1	1	1
